Test results taken from paper PMC7235904, “Is Blood a Good Indicator for Detecting Antimicrobials in Meat? Evidence for the Development of In Vivo Surveillance Methods” (Antibiotics, 2020).
Marks after values point to notes of the source that are not given here.

Test: Antimicrobial residue concentration and depletion in blood (serum) of treated pigs within the withdrawal period (LC-MS/MS)
Type: in vivo
Excerpt: To obtain samples containing antimicrobial compounds administered in vivo, 93 piglets (62 female, 31 male) with an average weight of 43.00 ± 12.79 kg were provided at treatment onset. These piglets were untreated animals that remained on the premises of the Faculty of Veterinary Sciences at the University of Zaragoza (Zaragoza, Spain) 40 days before administration of the compounds. Both during the acclimatization and withdrawal periods, animals were fed ad libitum with a special mixed feed that was free of antibiotics ([…], Spain), and water was provided from a separated, controlled water circuit. Piglets were raised in separate pens depending on the antibiotic administrated. After administration, animals were slaughtered at preset intervals within the withdrawal period in order to obtain samples containing different antimicrobial concentrations above and below the MRLs for muscle. Figure S1 indicates the slaughter days and the withdrawal periods set by the manufacturer for each antimicrobial compound administered. Between one and three piglets were slaughtered on the same day post-administration. The day of slaughter was calculated from the first day after the last antimicrobial treatment dose. […] Apart from samples containing antimicrobial compounds administered in vivo, and as a part of the sample bank, 15 of the 93 piglets were slaughtered after the acclimatization period and before treatment onset. Animals were stunned and slaughtered following the guidelines established by European Council Regulation (EC) No. 1099/2009 [39] regarding the protection of animals at the time of slaughter or killing. A penetrative captive bolt gun was used to stun the pigs, positioning it firmly against the skin, in the middle of the forehead, 2 cm above the line of the eyes, aiming towards the tail. This was followed by complete exsanguination carried out by incision in the jugular furrow at the base of the neck to sever all the major blood vessels arising from the heart. The samples obtained from them were used as blank samples for analysis. Blood was collected not only from slaughtered animals, but also from living animals on each day of slaughter. […] For quinolones in blood serum samples, a LC-MS/MS method was set up using a SCIEX Exion LC coupled to TripleQuad 6500+ triple quadrupole detector equipped with an Acquity Ultra Performance Liquid Chromatography Ethylene Bridged Hybrid (UPLC BEH) C18 (1.7 μm, 2.1 × 100 mm) column. Mobile phase consisted of eluent A: 0.1% formic acid in water, and eluent B: 0.1% formic acid in acetonitrile at a flow rate of 0.4 mL/min. […] Injected volume was 5 μL. Analytes were detected using positive electrospray ionization (ESI+) in multiple reaction monitoring (MRM) mode, and two transitions were monitored for each compound of interest (Table S4). […] The same mobile phase and gradient conditions as in SCIEX instruments were applied. […] Two ESI+ MRM transitions were monitored for each compound (Table S5). […] Results were represented as the mean ± standard deviation using the PRISM program (GraphPad Software, Inc., San Diego, USA). The rates of elimination (λz) of antibiotics from muscle and blood were determined by regression analysis. The corresponding half-lives of elimination were calculated according to the following equation: Half-life of elimination.

[1] = over the sample bank of treated piglets

half-life (both sexes, intramuscular, pig blood serum, T1/2=Ln(2)/λz, read-out: T1/2 half-life of elimination (BLOOD) (converted)): 13.2 h | Maximum concentration value in Blood [1]: 4098.00 ± 201.34 µg/kg | Minimum concentration value in Blood [1]: 23.67 ± 20.23 µg/kg | Slope (BLOOD) (pig blood serum, regression of concentration over the withdrawal period, deep intramuscular treatment): −0.5496 ± 0.02589 ^a
Compound: COc1ccc(NS(=O)(=O)c2ccc(N)cc2)nn1 [Sulfamethoxypyridazine, sulfamethoxypyridazine]
